Values joined by “and” are separate entries in the source; they are usually repeats but may differ in a detail not shown here. Equal values may be shown once. Read-outs that look alike come from different tables or passages of the source.
Experiments:
[1] = tested on: platelet deposition onto plaque homogenate, plaque tissue sections or collagen; assay: Platelet aggregation and thrombus formation in flowing whole blood (parallel plate flow chamber), inhibitor added in vitro; format: cell-based, human; details: for final platelet aggregate formation onto collagen fibers: up to 2 μM, only delayed at highest concentrations
[2] = tested on: platelet aggregation in blood; assay: Ex vivo static platelet aggregation (MEA) in two healthy volunteers after oral Imbruvica
[3] = tested on: platelet aggregation in blood; assay: Platelet aggregation in blood by multiple electrode aggregometry (MEA), static, inhibitor added in vitro; format: cell-based, human; details: for IC50: Homo sapiens, Platelet, 15 min pre-incubation, MEA; for collagen-induced platelet aggregation / platelet aggregation stimulated by TRAP, ADP or AA: 2 μM; for collagen-induced platelet aggregation: compared with plaque-induced aggregation; for maximal suppression of plaque-induced platelet aggregation: ACP-196 at 1 μM, ONO/GS-4059 at 2 μM
Experimental: The first 3 ml of blood drawn into an empty syringe were discarded. Experiments were performed between 30 min and 4 h after venipuncture. […] (Bampalis V G. et al.

[4] = tested on: platelet deposition onto plaque homogenate or collagen; assay: Ex vivo platelet thrombus formation under arterial flow in two healthy volunteers after oral Imbruvica; set-up: species or system human; details: shear rate 600/s
Experimental: For experiments in flowing blood, glass cover slips (Menzel, 24×60 mm, #1.5) coated with collagen (20 μg/ml), plaque homogenates or plaque tissue sections were assembled into parallel plate flow chambers using sticky slides (0.1 Luer sticky slides, Ibidi®, Martinsried, Germany) which had been blocked before with human serum albumin (HSA; 4% in PBS).
Fluorescence microscopy (excitation: 485/25 nm, emission: 528/38 nm) was performed for real time measurement of platelet adhesion and aggregate formation using a 10× air objective (NA 0.4) and a CoolSNAP HQ2 CCD camera (Photometrics, Tucson, USA).

[5] = Blood counts, liver enzymes and tolerability in two healthy volunteers after oral Imbruvica
[6] = donor B, after 1 week 140 mg each other day
[7] = plaque 833 μg/ml, static, read-out: IC50 for inhibition of plaque-induced platelet aggregation
[8] = donor A, 1 week after low dose Imbruvica (140 mg/d)
[9] = donor A, 3 h after Imbruvica loading dose (3×140 mg)
[10] = donor B, 1 week after low dose Imbruvica (140 mg each other day)
[11] = donor B, 3 h after Imbruvica loading dose (3×140 mg)
[12] = plaque-induced platelet aggregation, static

## C=CC(=O)N1CCC[C@@H](n2nc(-c3ccc(Oc4ccccc4)cc3)c3c(N)ncnc32)C1 [ibrutinib, 1-[(3R)-3-[4-Amino-3-(4-phenoxyphenyl)-1H-pyrazolo[3,4-d]pyrimidin-1-yl]piperidin-1-yl]prop-2-en-1-one]
[1]; 0.2 μM and 0.5 μM, high shear rate 1500/s
  platelet aggregation onto collagen: did not reduce
[1]; 0.2 μM, high shear rate 1500/s
  change of platelet thrombus formation onto plaque homogenate: −69±16%
[1]; 0.2 μM, shear rate 600/s
  change of collagen-induced platelet aggregation: +1±6%
  change of platelet aggregation onto plaque homogenate: −43±27%
  change of platelet aggregation onto plaque tissue: −33±23%
[1]; 0.5 μM, high shear rate 1500/s
  change of platelet thrombus formation onto plaque homogenate: −93±5%
[1]; 0.5 μM, shear rate 600/s
  change of collagen-induced platelet aggregation: +3±9%
  change of platelet aggregation onto plaque homogenate: −84±8%
  change of platelet aggregation onto plaque tissue: −44±30%
[1]; 1 μM, shear rate 600/s
  change of final platelet aggregate formation onto collagen fibers: +8±2%
  change of platelet aggregation onto plaque homogenate: −98±1%
  change of platelet thrombus formation onto plaque tissue: −76±16%
  platelet adhesion onto plaque homogenate: preserving platelet adhesion
[2]; donor A, 140 mg/d during the week, blood taken 23 h or 3 h post dose
  inhibition of plaque-induced platelet aggregation at each day tested: > 90%
[2]; donor A, 3 h after loading dose 3×140 mg
  inhibition of collagen-induced platelet aggregation: 91%
[2]; donor A, 3 h after loading dose 3×140 mg, one value per pool, listed as Imbruvica
  inhibition of platelet aggregation induced by two plaque homogenate pools: 94% and 93%
[2]; donor A, after 1 week 140 mg/d
  inhibition of platelet aggregation after collagen stimulation: 91%
  reduction of platelet aggregation stimulated by TRAP: 70%
[2]; donor A, after 1 week 140 mg/d, one value per pool, listed as Imbruvica
  inhibition of platelet aggregation stimulated by two plaque homogenate pools: 94% and 91%
[2]; donor B, 3 h after loading dose 3×140 mg
  reduction of platelet aggregation after collagen stimulation: 58%
[2]; donor B, 3 h after loading dose 3×140 mg, one value per pool, listed as Imbruvica
  reduction of platelet aggregation after plaque stimulation (two pools): 68% and 77%
[2]; [6]
  inhibition of platelet aggregation after collagen stimulation: 82%
  reduction of platelet aggregation stimulated by TRAP: 45%
[2]; donor B, after 1 week 140 mg each other day, one value per pool, listed as Imbruvica
  inhibition of platelet aggregation stimulated by two plaque homogenate pools: 93% and 91%
[2]; donors A and B, 3 h after loading dose 3×140 mg
  platelet aggregation induced by TRAP, ADP or AA: barely inhibited
[2]; donors A and B, after 1 week low dose
  platelet aggregation induced by ADP or AA: barely inhibited
[3]; 1 μM, ADP 5 μM, static
  reduction of platelet aggregation stimulated by ADP: −13%
[3]; 1 μM, TRAP 5 μM, static
  reduction of platelet aggregation stimulated by TRAP: −31%
[3]; 1 μM, collagen, static
  platelet aggregation upon stimulation with collagen: almost completely inhibited
[3]; 1 μM, no stimulus
  spontaneous minimal platelet aggregation in the absence of stimuli: abolished
[3]; 1 μM, plaque 833 μg/ml, static
  platelet aggregation upon stimulation with plaque: almost completely inhibited
[3]; collagen, static, read-out: IC50 for inhibition of collagen-stimulated platelet aggregation
  IC50: 120 ± 40 nM
[3]; [7]
  IC50: 180 ± 50 nM
[3]; plaque- and collagen-stimulated platelet aggregation, static
  concentration at which maximal suppression was reached: 0.5 µM
[4]; after 1 week 140 mg/d (donor A) or 140 mg each other day (donor B)
  plaque-induced thrombus formation under arterial flow: suppressed
[4]; both donors, 3 h after loading dose 3×140 mg
  plaque-induced thrombus formation under arterial flow: suppressed
[5]; both donors
  B-lymphocytes (measured by FACS): rather increased then decreased
[5]; [8]
  HCT: 36.7
  Hb: 13.0 g/dL
  Lymphocytes: 2900 µL⁻¹
  Lymphocytes, %: 45.9%
  Monocytes: 500 µL⁻¹
  Monocytes, %: 8.1%
  Neutrophils: 2900 µL⁻¹
  Neutrophils, %: 46%
  Platelets: 217000 µL⁻¹
  Red blood cells: 4.22e+06 µL⁻¹
[5]; [9]
  HCT: 36.8
  Hb: 12.4 g/dL
  Lymphocytes: 2600 µL⁻¹
  Lymphocytes, %: 44%
  Monocytes: 300 µL⁻¹
  Monocytes, %: 5.8%
  Neutrophils: 2900 µL⁻¹
  Neutrophils, %: 50.2%
  Platelets: 247000 µL⁻¹
  Red blood cells: 4.07e+06 µL⁻¹
[5]; [10]
  HCT: 44
  Hb: 16.1 g/dL
  Lymphocytes: 2000 µL⁻¹
  Lymphocytes, %: 29.5%
  Monocytes: 900 µL⁻¹
  Monocytes, %: 12.5%
  Neutrophils: 3900 µL⁻¹
  Neutrophils, %: 58%
  Platelets: 160000 µL⁻¹
  Red blood cells: 4.91e+06 µL⁻¹
[5]; [11]
  HCT: 47.8
  Hb: 17.2 g/dL
  Lymphocytes: 1700 µL⁻¹
  Lymphocytes, %: 27.0%
  Monocytes: 700 µL⁻¹
  Monocytes, %: 10.7%
  Neutrophils: 4000 µL⁻¹
  Neutrophils, %: 62.3%
  Platelets: 188000 µL⁻¹
  Red blood cells: 5.39e+06 µL⁻¹
[5]; loading dose or weekly low dose intake, two donors
  liver enzymes: not altered

## CC#CC(=O)N1CC[C@@H](n2c(=O)n(-c3ccc(Oc4ccccc4)cc3)c3c(N)ncnc32)C1.Cl [ONO/GS-4059]
[1]; shear rate 600/s
  final platelet aggregate formation onto collagen fibers: did not compromise
[3]; static
  collagen-induced platelet aggregation: equally well inhibited
  platelet aggregation stimulated by TRAP, ADP or AA: only marginally
  maximal suppression of plaque-induced platelet aggregation: 82%
[3]; [7]
  IC50: 1000 nM
[3]; [12]
  concentration at which maximal suppression was reached: 2 µM

## CC#CC(=O)N1CCC[C@H]1c1nc(-c2ccc(C(=O)Nc3ccccn3)cc2)c2c(N)nccn12 [acalabrutinib]
[1]; 2 μM, shear rate 600/s
  inhibition of platelet aggregation / thrombus formation onto plaque homogenate: 96%
[1]; shear rate 600/s
  final platelet aggregate formation onto collagen fibers: did not compromise
[3]; static
  collagen-induced platelet aggregation: equally well inhibited
  platelet aggregation stimulated by TRAP, ADP or AA: only marginally
  maximal suppression of plaque-induced platelet aggregation: 80%
[3]; [7]
  IC50: 400 nM
[3]; [12]
  concentration at which maximal suppression was reached: 1 µM

Reference: US10786509B2, “Treatment and prevention of atherothrombosis by inhibition of bruton's tyrosine kinase (BTK)” (priority 2016, dated 2020)
